experiment: Liquid droplet spread area on a glass surface; assay type: physicochemical; details: 2 minutes after application of 50 μL of liquid to a glass surface

Going from `CCCCCC(F)(F)C(F)(F)C(F)(F)C(F)(F)F` [F4H5, F(CF2)4(CH2)5H] to `CCCCCCCCC(F)(F)C(F)(F)C(F)(F)C(F)(F)C(F)(F)C(F)(F)F` [F6H8, F(CF2)6(CH2)8H], the “Liquid covered surface area” value rises from 7.54 ± 0.33 cm^2 to 12.89 ± 0.94 cm^2.

First: CCCCCCCCC [Nonane, reference compound]
Second: FC1(F)C(F)(F)C(F)(F)C2(F)C(F)(F)C(F)(F)C(F)(F)C(F)(F)C2(F)C1(F)F (stereo not shown) [Perfluorodecalin, reference compound]
The “Liquid covered surface area” value of the first is higher: 5.20 ± 0.18 cm^2 for the first, 1.45 ± 0.02 cm^2 for the second.
